The target in one assay is T1, Adenosine A2b receptor (Homo sapiens, UniProt P29275).
T1 construct: expressed in transfected cells; host or cells: CHO cell membranes
T1 sequence (P29275 1-332): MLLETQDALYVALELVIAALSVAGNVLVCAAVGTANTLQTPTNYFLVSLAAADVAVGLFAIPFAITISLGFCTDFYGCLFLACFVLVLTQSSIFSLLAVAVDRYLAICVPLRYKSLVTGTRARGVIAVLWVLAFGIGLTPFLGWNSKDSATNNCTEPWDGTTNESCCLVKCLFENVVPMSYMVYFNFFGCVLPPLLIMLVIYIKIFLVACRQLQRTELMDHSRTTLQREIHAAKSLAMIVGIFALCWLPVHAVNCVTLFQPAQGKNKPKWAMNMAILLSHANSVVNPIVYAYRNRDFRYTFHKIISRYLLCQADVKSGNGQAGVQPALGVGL
In words: Adenosine receptor TR-FRET binding assay, A2b. As to conditions: Table 9, further testing; displacement of 30 nM CA200645, CHO cell membranes. The method, then: (§1) All FRET binding experiments were conducted at room temperature in white 384-well plates, in assay binding buffer containing 1× LabMed (Cisbio, France), 100 μg/mL saponin, 1% DMSO and 0.02% pluronic acid. Binding of the fluorescently labelled Adenosine receptor antagonist XAC (CA200645, FRET acceptor) to terbium-labelled A1, A2a, A2b and A3 adenosine receptors (FRET donors) was detected by time-resolved FRET due to the close proximity of the donor and acceptor in a binding event. To investigate the ability of unlabelled test compounds to bind to Adenosine A1, A2a, A2b and A3 receptors, dose response curves were constructed that determined the ability of a range of concentrations to inhibit the binding of 30 nM CA200645 to the A2b receptor and 100 nM CA200645 to the A1, A2a, and A3 receptor.
(§2) Serial dilution (1:3 dilutions) of test compounds in neat DMSO and transfer of a 400 nL sample of test compound into the assay plate was carried out using the Mosquito (TTP Labtech, UK). The compound samples were incubated for 2 hours at room temperature with a fixed concentration of CA200645 defined for each receptor (see above) and CHO cell membranes containing the human Adenosine A1 (0.5 μg/well), A2a (0.3 μg/well), A2b (1 μg/well) or A3 (1 μg/well) receptor in 40 μL of assay buffer. Total and non-specific binding of CA200645 was determined in the absence and presence of 10 μM XAC, respectively.
(§3) Following 2 hours incubation, the level of CA200645 binding was detected on a Pherastar FSX (BMG Labtech, Germany) using standard TR-FRET settings. The terbium donor was excited with three laser flashes at a wavelength of 337 nm, and donor and acceptor emission was detected at 620 nm and 665 nm wavelengths, respectively. FRET ratios were obtained by multiplying the acceptor/donor ratio value by 10,000. Specific binding was determined by subtracting the non-specific binding FRET ratio from the total binding FRET ratio. Compound IC50 curves were analysed using GraphPad Prism 7.0 (GraphPad, USA) and Ki affinity values were determined from the obtained […] values using the method of Cheng and Prusoff.
For orientation: Time-resolved FRET reads energy transfer from a long-lived donor to a nearby acceptor.

For the next assay, the target named is T2, Adenosine A2a receptor (Homo sapiens, UniProt P29274).
T2 construct: expressed in transfected cells; host or cells: CHO cell membranes
In words: Adenosine receptor TR-FRET binding assay, A2a. As to conditions: displacement of 100 nM CA200645, CHO cell membranes. The method, then: as §1, §2, §3

In another assay the target is T3, Adenosine A1 receptor (Homo sapiens, UniProt P30542).
T3 construct: expressed in transfected cells; host or cells: CHO cell membranes
T3 sequence (P30542 1-326): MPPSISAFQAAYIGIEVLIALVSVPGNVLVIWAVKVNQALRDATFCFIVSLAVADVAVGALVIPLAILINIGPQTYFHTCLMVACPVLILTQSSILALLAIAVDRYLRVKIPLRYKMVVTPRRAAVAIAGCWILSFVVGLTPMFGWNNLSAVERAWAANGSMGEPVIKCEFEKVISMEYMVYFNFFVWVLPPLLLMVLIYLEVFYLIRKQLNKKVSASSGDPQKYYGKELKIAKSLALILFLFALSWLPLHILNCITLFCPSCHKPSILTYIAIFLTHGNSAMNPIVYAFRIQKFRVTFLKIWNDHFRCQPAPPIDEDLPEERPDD
In words: Adenosine receptor TR-FRET binding assay, A1. Conditions: Table 9, further testing; displacement of 100 nM CA200645, CHO cell membranes. The method, then: as §1, §2, §3

Data on 27 compounds can be found in patent publication US20200339548A1, “PYRIMIDINE DERIVATIVES AND THEIR USE FOR THE TREATMENT OF CANCER” (Adorx Therapeutics Limited, priority 2017, published 2020).

T2 sequence (P29274 whole entry): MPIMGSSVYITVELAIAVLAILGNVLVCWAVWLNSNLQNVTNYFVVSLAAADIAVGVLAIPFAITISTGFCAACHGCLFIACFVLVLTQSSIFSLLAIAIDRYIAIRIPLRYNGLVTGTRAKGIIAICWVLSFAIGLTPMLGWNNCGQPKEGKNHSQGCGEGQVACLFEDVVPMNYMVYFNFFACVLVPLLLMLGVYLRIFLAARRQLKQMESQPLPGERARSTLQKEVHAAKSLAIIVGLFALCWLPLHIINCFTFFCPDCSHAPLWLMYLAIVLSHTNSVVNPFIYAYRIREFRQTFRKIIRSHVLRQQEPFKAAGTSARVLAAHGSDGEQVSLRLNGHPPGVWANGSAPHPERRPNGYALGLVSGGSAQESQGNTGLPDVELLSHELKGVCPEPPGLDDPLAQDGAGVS

For orientation: Ki means the dissociation constant of the complex between target and ligand, obtained from inhibition or displacement. For `Nc1nc(-c2cccc(F)c2)ncc1C(=O)Nc1ccccc1` [Example 4.2, 4-Amino-2-(3-fluorophenyl)-N-phenyl-pyrimidine-5-carboxamide], the inhibition constant Ki at Adenosine A2b receptor came out at 8.06 µM; at Adenosine A2a receptor (Table 8, Cheng and Prusoff), 112 nM; at Adenosine A2a receptor (Table 9, further testing), 112 nM.

For `CC(C)NC(=O)c1c(N)nc(-c2cccc(C#N)c2)nc1OCCF` [Example 24, 4-Amino-2-(3-cyanophenyl)-6-(2-fluoroethoxy)-N-isopropyl-pyrimidine-5-carboxamide], the inhibition constant Ki on Adenosine A2a receptor (Table 9, further testing) is 3.3 nM.

Turning to `Nc1nc(-c2ccco2)ncc1C(=O)NCc1ccccc1C(F)(F)F` [Example 5.55, 4-Amino-2-(2-furyl)-N-[[2-(trifluoromethyl)phenyl]methyl]pyrimidine-5-carboxamide], on Adenosine A2a receptor (Table 9, further testing), the Ki came to 21 nM.

Consider `CN(C)CCNC(=O)c1c(N)nc(-c2cccc(C#N)c2)nc1OCCF` [Example 24.5, 4-Amino-2-(3-cyanophenyl)-N-[2-(dimethylamino)ethyl]-6-(2-fluoroethoxy)pyrimidine-5-carboxamide], for which the Ki on Adenosine A2a receptor (Table 9, further testing) worked out at 29 nM.

Turning to `Nc1nc(-c2ccco2)ncc1C(=O)NCc1ccc2cnccc2c1` [Example 5.47, 4-Amino-2-(2-furyl)-N-(6-isoquinolylmethyl) pyrimidine-5-carboxamide], the Ki on Adenosine A1 receptor stood at 4.77 µM; at Adenosine A2a receptor (Table 9, further testing), 230 nM.

Turning to `CCCNC(=O)c1c(N)nc(-c2cccc(C#N)c2)nc1OCCF` [Example 24.1, 4-Amino-2-(3-cyanophenyl)-6-(2-fluoroethoxy)-N-propyl-pyrimidine-5-carboxamide], the inhibition constant Ki on Adenosine A2a receptor (Table 9, further testing) was 5.7 nM.

In the case of `COc1cccc(CNC(=O)c2cnc(-c3ccco3)nc2N)c1OC` [Example 5.38, 4-Amino-N-[(2,3-dimethoxyphenyl)methyl]-2-(2-furyl)pyrimidine-5-carboxamide], the Ki came to 2.36 µM on Adenosine A2b receptor and 20 nM on Adenosine A2a receptor (Table 9, further testing).

Turning to `Cc1cccnc1CNC(=O)c1c(N)nc(-c2ccco2)nc1OCCC1CCCCN1` (stereo not drawn) [Example 23, 4-Amino-2-(2-furyl)-N-[(3-methyl-2-pyridyl)methyl]-6-[2-(2-piperidyl)ethoxy]pyrimidine-5-carboxamide], the Ki stood at 8.53 µM on Adenosine A1 receptor and 864 nM on Adenosine A2a receptor (Table 9, further testing).

For `Nc1nc(-c2cccc(F)c2)ncc1C(=O)NCc1c(F)cccc1F` [Example 5.4, 4-Amino-N-[(2,6-difluorophenyl)methyl]-2-(3-fluorophenyl)pyrimidine-5-carboxamide], the Ki at Adenosine A2b receptor was found to be 0.138 µM; at Adenosine A2a receptor (Table 8, Cheng and Prusoff), 50 nM; on Adenosine A2a receptor (Table 9, further testing), 50 nM.

Consider `Nc1nc(-c2ccco2)ncc1C(=O)N[C@H]1CCc2ccc(F)cc21` [Example 5.42, 4-Amino-N-[(1S)-6-fluoroindan-1-yl]-2-(2-furyl)pyrimidine-5-carboxamide], for which, on Adenosine A2a receptor (Table 9, further testing), the Ki came to 53 nM.

In the case of `Cc1cccnc1CNC(=O)c1cnc(-c2nccs2)nc1N` [Example 16.1, 4-Amino-N-[(3-methyl-2-pyridyl)methyl]-2-thiazol-2-yl-pyrimidine-5-carboxamide], the inhibitory constant (Ki) was found to be 7.17 µM at Adenosine A2b receptor and 40 nM on Adenosine A2a receptor (Table 9, further testing).

Consider `Cc1ccc(CNC(=O)c2cnc(-c3ccco3)nc2N)cc1` [Example 11.1, 4-Amino-2-(2-furyl)-N-(p-tolylmethyl)pyrimidine-5-carboxamide], for which the Ki at Adenosine A1 receptor was found to be 2.38 µM; at Adenosine A2a receptor (Table 8, Cheng and Prusoff) it was 31 nM; at Adenosine A2a receptor (Table 9, further testing) it was 31 nM.

Consider `CC(=O)NCCNc1nc(-c2ccco2)nc(N)c1C(=O)NCc1ncccc1C` [Example 22, 4-(2-Acetamidoethylamino)-6-amino-2-(2-furyl)-N-[(3-methyl-2-pyridyl)methyl]pyrimidine-5-carboxamide], for which the inhibition constant Ki on Adenosine A1 receptor came to 0.598 µM; at Adenosine A2a receptor (Table 9, further testing), 6.8 nM.

Consider `Nc1nc(-c2cccc(F)c2)ncc1C(=O)NCc1ncccn1` [Example 5.5, 4-Amino-2-(3-fluorophenyl)-N-(pyrimidin-2-ylmethyl)pyrimidine-5-carboxamide], for which the Ki on Adenosine A2a receptor (Table 8, Cheng and Prusoff) stood at 278 nM; on Adenosine A2a receptor (Table 9, further testing) it was 278 nM.

Take `CC(C)CNC(=O)c1c(N)nc(-c2cccc(C#N)c2)nc1OCCF` [Example 24.2, 4-Amino-2-(3-cyanophenyl)-6-(2-fluoroethoxy)-N-isobutyl-pyrimidine-5-carboxamide]: the Ki at Adenosine A2a receptor (Table 9, further testing) is 2 nM.

In the case of `Cc1cccnc1CNC(=O)c1cnc(-c2ccccc2F)nc1N` [Example 9, 4-Amino-2-(2-fluorophenyl)-N-[(3-methyl-2-pyridyl)methyl]pyrimidine-5-carboxamide], the Ki on Adenosine A2a receptor (Table 8, Cheng and Prusoff) is 312 nM; on Adenosine A2a receptor (Table 9, further testing) it was 312 nM.

For `Cc1cccnc1CNC(=O)c1cnc(-n2cccn2)nc1N` [Example 15, 4-Amino-N-[(3-methyl-2-pyridyl)methyl]-2-pyrazol-1-yl-pyrimidine-5-carboxamide], the inhibitory constant (Ki) on Adenosine A2a receptor (Table 8, Cheng and Prusoff) amounted to 265 nM; on Adenosine A2a receptor (Table 9, further testing), 265 nM.

Turning to `CN(Cc1ccccc1)C(=O)c1cnc(-c2ccco2)nc1N` [Example 5.22], the Ki came to 4.24 µM at Adenosine A1 receptor; 871 nM on Adenosine A2a receptor (Table 8, Cheng and Prusoff); 871 nM on Adenosine A2a receptor (Table 9, further testing).

With `Nc1nc(-c2ccco2)ncc1C(=O)NCc1ncco1` [Example 5.45, 4-Amino-2-(2-furyl)-N-(oxazol-2-ylmethyl)pyrimidine-5-carboxamide], the Ki on Adenosine A2a receptor (Table 9, further testing) was found to be 123 nM.

Take `NC(=O)c1nnc(-c2cccc(F)c2)nc1N` [Example 6, 5-Amino-3-(3-fluorophenyl)-1,2,4-triazine-6-carboxamide]: the Ki on Adenosine A2a receptor (Table 8, Cheng and Prusoff) amounted to 556 nM; on Adenosine A2a receptor (Table 9, further testing) it was 556 nM.

`Nc1nc(-c2ccco2)ncc1C(=O)NC1CCCc2cccnc21` (stereo not drawn) [Example 5.49, 4-Amino-2-(2-furyl)-N-(5,6,7,8-tetrahydroquinolin-8-yl)pyrimidine-5-carboxamide]: the inhibition constant (Ki) on Adenosine A2a receptor (Table 9, further testing) was 159 nM.

As for `Cc1cccnc1CNC(=O)c1cnc(-c2ncco2)nc1N` [Example 16, 4-Amino-N-[(3-methyl-2-pyridyl)methyl]-2-oxazol-2-yl-pyrimidine-5-carboxamide], the Ki was found to be 5.65 µM on Adenosine A1 receptor; 34 nM on Adenosine A2a receptor (Table 8, Cheng and Prusoff); 34 nM on Adenosine A2a receptor (Table 9, further testing).

On to `Nc1nc(-c2ccco2)ncc1C(=O)NCc1ccc(Cl)cc1Cl` [Example 5.19, 4-Amino-N-[(2,4-dichlorophenyl)methyl]-2-(2-furyl)pyrimidine-5-carboxamide], for which the inhibition constant (Ki) at Adenosine A2a receptor (Table 8, Cheng and Prusoff) was found to be 15 nM; at Adenosine A2a receptor (Table 9, further testing), 15 nM.

Regarding `C[C@@H](NC(=O)c1cnc(-c2cccc(F)c2)nc1N)c1ccccc1` [Example 5, 4-Amino-2-(3-fluorophenyl)-N-[(1R)-1-phenylethyl]pyrimidine-5-carboxamide], the inhibition constant (Ki) came to 329 nM on Adenosine A2a receptor (Table 8, Cheng and Prusoff); 329 nM on Adenosine A2a receptor (Table 9, further testing).

Regarding `COc1ccc(CNC(=O)c2cnc(-c3ccco3)nc2N)cc1` [Example 5.11, 4-Amino-2-(2-furyl)-N-[(4-methoxyphenyl)methyl]pyrimidine-5-carboxamide], the inhibitory constant (Ki) on Adenosine A2a receptor (Table 8, Cheng and Prusoff) came out at 495 nM; at Adenosine A2a receptor (Table 9, further testing), 495 nM.

Take `CC(C)n1ncnc1CNC(=O)c1cnc(-c2ccco2)nc1N` [Example 5.27, 4-Amino-2-(2-furyl)-N-[(2-isopropyl-1,2,4-triazol-3-yl)methyl]pyrimidine-5-carboxamide]: the inhibition constant Ki on Adenosine A1 receptor came to 2.68 µM; at Adenosine A2a receptor (Table 8, Cheng and Prusoff), 17 nM; at Adenosine A2a receptor (Table 9, further testing), 17 nM.

In the case of `CCCCNC(=O)c1c(N)nc(-c2cccc(C#N)c2)nc1OCCF` [Example 24.3, 4-Amino-N-butyl-2-(3-cyanophenyl)-6-(2-fluoroethoxy)pyrimidine-5-carboxamide], at Adenosine A2a receptor (Table 9, further testing), the Ki amounted to 0.9 nM.
